In PubChem BioAssay AID330 (DTP/NCI, 2004):
Inconclusive results and toxic doses are left out. Square brackets hold non-standard residues; d marks the D form. Peptide text beside a SMILES is read from it. ξ: configuration not given here. ξN = NC(=O)CC(N)C(=O)O

Test system: P388 leukemia ip, CD2F1 mice, survival T/C
Assay: NCI In Vivo Anticancer Drug Screen. Data for tumor model P388 Leukemia (intraperitoneal) in CD2F1 (CDF1) mice
Settings: endpoint: median survival time, higher = longer survival
How it was run: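 Mice carrying the transplanted tumor received test compound or vehicle. Survival was recorded in each group, and the value is the treated-group measurement divided by that of the vehicle-treated control group.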

[1] = dose: 100.0 mg/kg/injection, schedule: Q04DX002 (ip), vehicle: saline with Tween-80
[2] = dose: 200.0 mg/kg/injection, schedule: Q04DX002 (ip), vehicle: saline with Tween-80
[3] = dose: 400.0 mg/kg/injection, schedule: Q04DX002 (ip), vehicle: saline with Tween-80
[4] = dose: 100.0 mg/kg/injection, schedule: Q04DX003 (ip), vehicle: Klucel (hydroxypropylcellulose) (HPC)
[5] = dose: 200.0 mg/kg/injection, schedule: Q04DX003 (ip), vehicle: Klucel (hydroxypropylcellulose) (HPC)

CONC(C)=O
T/C (dose: 60.0 mg/kg/injection, schedule: Q01DX005 (ip), vehicle: saline): 98 % of control | T/C (dose: 120.0 mg/kg/injection, schedule: Q01DX005 (ip), vehicle: saline): 100 % of control | T/C (dose: 240.0 mg/kg/injection, schedule: Q01DX005 (ip), vehicle: saline): 100 % of control

COC(=O)c1ncn(Cc2ccccc2)c1O (tested in a mixture with another compound)
T/C (dose: 60.0 mg/kg/injection, schedule: Q01DX005 (ip), vehicle: water): 93 % of control | T/C (dose: 120.0 mg/kg/injection, schedule: Q01DX005 (ip), vehicle: water): 107 % of control | T/C (dose: 240.0 mg/kg/injection, schedule: Q01DX005 (ip), vehicle: water): 110 % of control

CO/C=N/c1cn2c(n1)CN=C2
T/C (dose: 100.0 mg/kg/injection, schedule: Q01DX001 (ip), vehicle: saline): 102 % of control | T/C (dose: 200.0 mg/kg/injection, schedule: Q01DX001 (ip), vehicle: saline): 95 % of control | T/C (dose: 400.0 mg/kg/injection, schedule: Q01DX001 (ip), vehicle: saline): 96 % of control

COc1cc2cc(c1Cl)N(C)C(=O)CC(OC(=O)C(C)N(C)C(=O)C(C)C)C1(C)OC1C(C)C1CC(O)(NC(=O)O1)C(OC)/C=C/C=C(C)C2 (stereo unspecified)
T/C (dose: 0.1 micrograms/kg/injection, schedule: Q01DX009 (ip), vehicle: saline): 105 % of control | T/C (dose: 0.2 micrograms/kg/injection, schedule: Q01DX009 (ip), vehicle: saline): 115 % of control | T/C (dose: 3.1 micrograms/kg/injection, schedule: Q01DX009 (ip), vehicle: saline + alcohol): 157 % of control | T/C (dose: 3.1 micrograms/kg/injection, schedule: Q01DX009 (ip), vehicle: saline): 150 % of control | T/C (dose: 6.3 micrograms/kg/injection, schedule: Q01DX009 (ip), vehicle: saline + alcohol): 167 % of control | T/C (dose: 6.3 micrograms/kg/injection, schedule: Q01DX009 (ip), vehicle: saline): 161 % of control | T/C (dose: 12.5 micrograms/kg/injection, schedule: Q01DX009 (ip), vehicle: saline + alcohol): 150 % of control

CCOC(=O)CC(C)=Nc1c(SC)sc(C#N)c1N
T/C [1]: 97 % of control | T/C [2]: 95 % of control | T/C [3]: 91 % of control

c1ccc(CNCc2ccccc2)cc1
T/C (dose: 50.0 mg/kg/injection, schedule: Q04DX003 (ip), vehicle: Klucel (hydroxypropylcellulose) (HPC)): 95 % of control | T/C [4]: 95 % of control | T/C [5]: 100 % of control

CC1(C)CC(OP2(=O)NCCCO2)CC(C)(C)N1O (stereo unspecified)
T/C (dose: 27.5 mg/kg/injection, schedule: Q01DX001 (ip), vehicle: saline): 150 % of control | T/C (dose: 55.0 mg/kg/injection, schedule: Q01DX001 (ip), vehicle: saline): 165 % of control

CCN(CC)C1(C(F)C(F)(F)F)OCC2(CO1)COC(C(F)C(F)(F)F)(N(CC)CC)OC2 (stereo unspecified)
T/C (dose: 60.0 mg/kg/injection, schedule: Q01DX005 (ip), vehicle: saline with Tween-80): 98 % of control | T/C (dose: 120.0 mg/kg/injection, schedule: Q01DX005 (ip), vehicle: saline with Tween-80): 104 % of control | T/C (dose: 240.0 mg/kg/injection, schedule: Q01DX005 (ip), vehicle: saline with Tween-80): 91 % of control

O=C1c2cccc3cccc(c23)C2C1N2C1CCCCC1 (stereo unspecified)
T/C (dose: 25.0 mg/kg/injection, schedule: Q01DX001 (ip), vehicle: saline sonified): 95 % of control | T/C (dose: 50.0 mg/kg/injection, schedule: Q01DX001 (ip), vehicle: saline sonified): 104 % of control | T/C (dose: 100.0 mg/kg/injection, schedule: Q01DX001 (ip), vehicle: saline sonified): 86 % of control

NCC(=O)NC(CC(N)=O)C(=O)O (stereo unspecified) (H-Gly-[ξN]-OH)
T/C (dose: 50.0 mg/kg/injection, schedule: Q01DX009 (ip), vehicle: saline): 119 % of control | T/C (dose: 100.0 mg/kg/injection, schedule: Q01DX009 (ip), vehicle: saline): 109 % of control | T/C (dose: 200.0 mg/kg/injection, schedule: Q01DX009 (ip), vehicle: saline): 114 % of control

c1ccc2c(c1)[nH]c1c2c[n+]2c3c(cccc13)CCC2
T/C (dose: 8.33 mg/kg/injection, schedule: Q01DX009 (ip), vehicle: saline): 115 % of control | T/C (dose: 18.7 mg/kg/injection, schedule: Q01DX009 (ip), vehicle: saline): 95 % of control

CCOC(=O)NC(=O)CNc1ncc([N+](=O)[O-])s1
T/C (dose: 100.0 mg/kg/injection, schedule: Q01DX001 (ip), vehicle: Klucel (hydroxypropylcellulose) (HPC)): 100 % of control | T/C (dose: 200.0 mg/kg/injection, schedule: Q01DX001 (ip), vehicle: Klucel (hydroxypropylcellulose) (HPC)): 108 % of control

N#CSCCC(=O)Nc1ccccc1
T/C (dose: 6.25 mg/kg/injection, schedule: Q01DX005 (ip), vehicle: Klucel (hydroxypropylcellulose) (HPC)): 102 % of control | T/C (dose: 12.5 mg/kg/injection, schedule: Q01DX005 (ip), vehicle: Klucel (hydroxypropylcellulose) (HPC)): 101 % of control | T/C (dose: 25.0 mg/kg/injection, schedule: Q01DX005 (ip), vehicle: Klucel (hydroxypropylcellulose) (HPC)): 104 % of control

Nc1nnnn1NC(=O)c1ccccc1
T/C [4]: 97 % of control | T/C [5]: 102 % of control | T/C (dose: 400.0 mg/kg/injection, schedule: Q04DX003 (ip), vehicle: Klucel (hydroxypropylcellulose) (HPC)): 98 % of control

COc1ccc(C2c3cc4c(cc3OC(C)(O)C2C)OCO4)c(OC)c1OC (stereo unspecified)
T/C [1]: 100 % of control | T/C [2]: 96 % of control | T/C [3]: 86 % of control

CN(C)Cc1c(O)c2ccc(N(C)C)cc2[nH]c1=O
T/C (dose: 60.0 mg/kg/injection, schedule: Q01DX005 (ip), vehicle: Klucel (hydroxypropylcellulose) (HPC)): 92 % of control | T/C (dose: 120.0 mg/kg/injection, schedule: Q01DX005 (ip), vehicle: Klucel (hydroxypropylcellulose) (HPC)): 90 % of control | T/C (dose: 240.0 mg/kg/injection, schedule: Q01DX005 (ip), vehicle: Klucel (hydroxypropylcellulose) (HPC)): 96 % of control

CCN(CC)CCCNC(=O)Cc1ccc2c(c1)C(=O)c1ccccc1C2=O
T/C (dose: 25.0 mg/kg/injection, schedule: Q01DX005 (ip), vehicle: water): 106 % of control | T/C (dose: 50.0 mg/kg/injection, schedule: Q01DX005 (ip), vehicle: water): 108 % of control | T/C (dose: 100.0 mg/kg/injection, schedule: Q04DX002 (ip), vehicle: water): 97 % of control

CN/N=C(/C)C(=O)O
T/C (dose: 50.0 mg/kg/injection, schedule: Q01DX005 (ip), vehicle: saline): 106 % of control | T/C (dose: 100.0 mg/kg/injection, schedule: Q01DX005 (ip), vehicle: saline): 99 % of control | T/C (dose: 200.0 mg/kg/injection, schedule: Q01DX005 (ip), vehicle: saline): 99 % of control

O=c1[nH]c(=O)c2cc([N+](=O)[O-])cc([N+](=O)[O-])c2[nH]1
T/C (dose: 50.0 mg/kg/injection, schedule: Q04DX003 (ip), vehicle: saline): 118 % of control | T/C (dose: 100.0 mg/kg/injection, schedule: Q04DX003 (ip), vehicle: saline): 89 % of control

O=C(O)/C=C\S(=O)(=O)O
T/C (dose: 25.0 mg/kg/injection, schedule: Q04DX002 (ip), vehicle: saline): 116 % of control | T/C (dose: 50.0 mg/kg/injection, schedule: Q04DX002 (ip), vehicle: saline): 106 % of control | T/C (dose: 100.0 mg/kg/injection, schedule: Q04DX002 (ip), vehicle: saline): 93 % of control

CN=C(N/N=C(C)\C=N\NC(=NC)N(C)C)N(C)C
T/C (dose: 50.0 mg/kg/injection, schedule: Q01DX005 (ip), vehicle: saline with Tween-80): 109 % of control | T/C (dose: 100.0 mg/kg/injection, schedule: Q01DX005 (ip), vehicle: saline with Tween-80): 105 % of control | T/C (dose: 200.0 mg/kg/injection, schedule: Q01DX005 (ip), vehicle: saline with Tween-80): 105 % of control

CC(COCNc1ccccc1)C(=O)O (stereo unspecified)
T/C (dose: 50.0 mg/kg/injection, schedule: Q01DX009 (ip), vehicle: Klucel (hydroxypropylcellulose) (HPC)): 103 % of control | T/C (dose: 100.0 mg/kg/injection, schedule: Q01DX009 (ip), vehicle: Klucel (hydroxypropylcellulose) (HPC)): 103 % of control | T/C (dose: 200.0 mg/kg/injection, schedule: Q01DX009 (ip), vehicle: Klucel (hydroxypropylcellulose) (HPC)): 100 % of control

Brc1ccc[n+](CCc2ccccc2)c1
T/C (dose: 12.5 mg/kg/injection, schedule: Q01DX009 (ip), vehicle: saline with Tween-80): 111 % of control | T/C (dose: 25.0 mg/kg/injection, schedule: Q01DX009 (ip), vehicle: saline with Tween-80): 98 % of control

Cn1c(C(=O)N/N=C/C23OC(C)(C)OC2OCC2OC(C)(C)OC23)cc2cc(OCc3ccccc3)ccc21 (stereo unspecified)
T/C (dose: 50.0 mg/kg/injection, schedule: Q01DX005 (ip), vehicle: Klucel (hydroxypropylcellulose) (HPC)): 92 % of control | T/C (dose: 100.0 mg/kg/injection, schedule: Q01DX005 (ip), vehicle: Klucel (hydroxypropylcellulose) (HPC)): 101 % of control | T/C (dose: 200.0 mg/kg/injection, schedule: Q01DX005 (ip), vehicle: Klucel (hydroxypropylcellulose) (HPC)): 90 % of control
